# Data from publication PMC9667776 (RSC Medicinal Chemistry, 2022).
# What was measured:
# 2-epimerase = assay type: binding, B. anthracis
# PAK4 = PAK4 (Homo sapiens, UniProt O96013, L310A); assay type: binding
# Sequence of PAK4 (O96013 300-591 L310A limits assumed): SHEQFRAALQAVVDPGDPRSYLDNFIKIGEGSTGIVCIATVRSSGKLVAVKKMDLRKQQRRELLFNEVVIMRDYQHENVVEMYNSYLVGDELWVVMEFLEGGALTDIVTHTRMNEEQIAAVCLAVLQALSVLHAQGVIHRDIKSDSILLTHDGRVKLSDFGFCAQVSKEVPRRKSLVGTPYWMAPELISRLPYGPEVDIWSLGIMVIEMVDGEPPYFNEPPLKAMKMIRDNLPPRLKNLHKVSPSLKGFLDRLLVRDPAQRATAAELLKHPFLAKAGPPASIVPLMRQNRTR
SMILES,competition with UDP-GlcNAc by LO-NMR (2-epimerase),binding by competitive LO-NMR (PAK4)
O=S(=O)(CCCn1cc(CCNS(=O)(=O)c2ccc(Br)cc2Cl)nn1)Nc1ccc(Nc2ccc(C(F)(F)F)nn2)cc1 [compound 4],competitive with UDP-GlcNAc,–
CNC(=O)c1cnn2ccc(C#N)cc12 [compound 5],–,consistent with binding to the ATP-binding site
